From patent US20240173419A1, “CDK2 DEGRADERS AND USES THEREOF” (Kymera Therapeutics, Inc., priority 2022, published 2024)

Target: T1, CDK2 (Homo sapiens, UniProt P24941)
T1 construct: endogenous in cells; host or cells: MKN1 cells
Assay: CDK2 degradation in MKN1 cells (AlphaLISA)
Format: cell-based
Set-up: key to CDK2 degradation 14 h: Mean external-Abs DC50 (nM): A (<100 nM); B (≥100-500 nM); C (>500-1000 nM); D (>1000 nM); E (not achieved)
Conditions: for CDK2 degradation 14 h: Average Dmax % / DC50 / CDK2 degradation 14 h: Mean external-Abs DC50 (nM): 14 h incubation; for DC50: read-out: CDK2 degradation 14 h: Mean external-Abs DC50
Protocol: Degradation of CDK2 in MKN1 cells was measured using AlphaLISA technology (PerkinElmer ALSU-TCDK2-A10K). MKN1 cells were maintained in RPMI1640 medium containing 10% FBS+1× penn/strep. Cells were seeded in 96-well plates (Corning 3599) at a density of 2e4 cells per well in 80 μL of fresh complete growth medium. Cells were incubated overnight at 37° C., 5% CO2. Compounds were then added to the cell assay plates with a final top concentration of 10 μM in a 1:5 dilution series with a total of 11 doses (0.001 nM-10 μM). The final volume per well was 160 μL and the final DMSO concentration was 0.1%. Additionally, wells containing no cells and only complete growth medium were also maintained on the cell assay plates (‘no cell’ wells) and processed along with experimental wells. After 14 hour-incubation at 37° C., 5% CO2, the medium was removed and the cells were washed once with 100 μL of 1×PBS. Following removal of PBS, 40 μL of 1× Lysis Buffer containing 1× protease and phosphatase inhibitors (Roche 4693116001; Roche 4906837001) were added to each well. The cell assay plate was agitated on a plate shaker at 350 rpm for 10 minutes at room temperature. 10 μL of each cell lysate were transferred to a 384-well plate (PerkinElmer 6007290). 10 μL of control lysates (from PerkinElmer ALSU-TCDK2-A10K kit) were added to separate wells to generate a standard curve. Activation Buffer was prepared by diluting 25-fold in combined Reaction Buffer 1 and Reaction Buffer 2. Acceptor Beads were diluted 50-fold in combined Reaction Buffers. 5 μL of Acceptor Mix were added to each well. The plate was sealed with Topseal-Aadhesive film, covered with foil, and incubated in the dark for 1 hour at room temperature. Under subdued light, the Donor Beads were diluted 50-fold in Dilution Buffer. 5 μL of Donor Mix were added to each well under subdued light. The plate was sealed with Topseal-A adhesive film, covered with foil, and incubated in the dark for 1 hour at room temperature. Under subdued light, the plates were analyzed on an EnVision Microplate Reader (PerkinElmer Model 2009-0030). The average signal from ‘no cell’ wells was subtracted from the signal in experimental wells prior to calculating Alpha signal for test compounds and negative control (0.100 DMSO). The data were analyzed using Xlfit (v5.3. 1.3) and the dose-dependent CDK2 degradation data were fit using a four-parameter logistic model to calculate DC50.

| SMILES | CDK2 degradation 14 h: Average Dmax % | DC50 | CDK2 degradation 14 h: Mean external-Abs DC50 (nM) | Dmax (MKN-1, 14 h incubation) |
| --- | --- | --- | --- | --- |
| Cc1cc(S(=O)(=O)N2CCC3(CCN(CC4CCN(c5ccc6c(c5)n(C)c(=O)n6C5CCC(=O)NC5=O)CC4)CC3)CC2)ccc1Nc1ncc2cc(Cl)c(=O)n(C3CCCC3)c2n1 (centres unmarked) [I-381] | A (A (>75% o)) | < 100 nM | – | – |
| Cc1cc(S(=O)(=O)C2CC3(CCN(CC4CCN(c5ccc(F)c(NC6CCC(=O)NC6=O)c5)CC4)CC3)C2)ccc1Nc1ncc2cc(Cl)c(=O)n(C3CCCC3)c2n1 (centres unmarked) [I-70] | B (B (>50% -75%)) | > 1000 nM | – | – |
| Cc1cc(S(=O)(=O)C2CC3(CCN(CC4CCN(c5ccc6c(c5F)n(C)c(=O)n6C5CCC(=O)NC5=O)CC4)CC3)C2)ccc1Nc1ncc2cc(Cl)c(=O)n(C(C)C)c2n1 (centres unmarked) [I-128] | A (A (>75% o)) | < 100 nM | – | – |
| Cc1cc(S(=O)(=O)C2CC3(CCN(CC4CCN(c5ccc(N6CCC(=O)NC6=O)cc5)CC4)CC3)C2)ccc1Nc1ncc2cc(Cl)c(=O)n(C3CCCC3)c2n1 [I-79] | B (B (>50% -75%)) | 100 to 500 nM | – | – |
| Cc1cc(S(=O)(=O)N2CCC(N3CCN(CCCc4ccc5c(c4)n(C)c(=O)n5C4CCC(=O)NC4=O)CC3)CC2)ccc1Nc1ncc2ccc(=O)n(C3CCCC3)c2n1 (centres unmarked) [I-464] | B (B (>50% -75%)) | < 100 nM | – | – |
| Cc1cc(S(=O)(=O)NCCOCCOCCOCCCc2ccc3c(c2)n(C)c(=O)n3C2CCC(=O)NC2=O)ccc1Nc1ncc2ccc(=O)n(C3CCCC3)c2n1 (centres unmarked) [I-474] | A (A (>75% o)) | < 100 nM | – | – |
| Cc1cc(S(=O)(=O)N2CCC(F)(CN(C)C3CCN(c4cccc5c4n(C)c(=O)n5C4CCC(=O)NC4=O)CC3)CC2)ccc1Nc1ncc2cc(Cl)c(=O)n(C3CCCC34CC4)c2n1 (centres unmarked) [I-358] | B (B (>50% -75%)) | 500 to 1000 nM | – | – |
| Cc1cc(S(=O)(=O)C2CC3(CCN(CC4CCN(c5cccc(C6CCC(=O)NC6=O)c5)CC4)CC3)C2)ccc1Nc1ncc2cc(Cl)c(=O)n(C3CCCC3)c2n1 (centres unmarked) [I-80] | C (C (>25% -50%)) | – | E | – |
| Cc1cc(S(=O)(=O)CCCO[C@H]2CC[C@H](CN3CCC(c4ccc5c(c4)n(C)c(=O)n5C4CCC(=O)NC4=O)CC3)CC2)ccc1Nc1ncc2cc(Cl)c(=O)n(C3CCCC3)c2n1 (some centres unmarked) [I-3, 3-[5-[1-[[4-[3-[4-[(6-Chloro-8-cyclopentyl-7-oxo-pyrido[2,3-d]pyrimidin-2-yl)amino]-3-methyl-phenyl]sulfonylpropoxy]cyclohexyl]methyl]-4-piperidyl]-3-methyl-2-oxo-benzimidazol-1-yl]piperidine-2,6-dione] | – | < 100 nM | – | > 75% |
| Cc1cc(S(=O)(=O)N2CCC(OCC#Cc3cccc4c3n(C)c(=O)n4C3CCC(=O)NC3=O)CC2)ccc1Nc1ncc2cc(Cl)c(=O)n(C3CCCC3)c2n1 (centres unmarked) [I-455] | D (D (<25%)) | > 1000 nM | – | – |
| Cc1cc(S(=O)(=O)N2CCC(CN(C)C3CCN(c4cccc5c4n(C)c(=O)n5C4CCC(=O)NC4=O)CC3)CC2)ccc1Nc1ncc2ccc(=O)n(C3CCCC3)c2n1 (centres unmarked) [I-450] | A (A (>75% o)) | < 100 nM | – | – |
| Cc1cc(S(=O)(=O)C2CC3(CCN(CC4CCN(c5ccc6c(c5F)n(C)c(=O)n6C5CCC(=O)NC5=O)CC4)CC3)C2)ccc1Nc1ncc2cc(Cl)c(=O)n(C3CCOC3)c2n1 (centres unmarked) [I-129] | C (C (>25% -50%)) | – | E | – |

Second part, led by results:

| CDK2 degradation 14 h: Average Dmax % | DC50 | CDK2 degradation 14 h: Mean external-Abs DC50 (nM) | SMILES | Dmax (MKN-1, 14 h incubation) |
| --- | --- | --- | --- | --- |
| A (A (>75% o)) | < 100 nM | – | Cc1cc(S(=O)(=O)NC2(C)CC(N3CCN(CC4CCN(c5ccc6c(c5F)n(C)c(=O)n6C5CCC(=O)NC5=O)CC4)CC3)C2)ccc1Nc1ncc(C(F)(F)F)c(N2CCCC(C)(O)C2)n1 (centres unmarked) [I-666] | – |
| A (A (>75% o)) | < 100 nM | – | CC1(O)CCCN(c2nc(Nc3ccc(S(=O)(=O)NC4CCC(CN5CCN(c6ccc(C7CCC(=O)NC7=O)c(F)c6)CC5)CC4)cc3)ncc2C(F)(F)F)C1 (centres unmarked) [I-943] | – |
| B (B (>50% -75%)) | 100 to 500 nM | – | CC1(O)CCCN(c2nc(Nc3ccc(S(=O)(=O)NC4CCC(CN5CCN(c6ccc(C7CCC(=O)NC7=O)cc6F)CC5)CC4)cc3C(F)(F)F)ncc2C(F)(F)F)C1 (centres unmarked) [I-1110] | – |
| B (B (>50% -75%)) | > 1000 nM | – | Cc1cc(S(=O)(=O)NC2CC(N3CCN(CC4CCN(c5ccc(Cl)c(NC6CCC(=O)NC6=O)c5)CC4)CC3)C2)ccc1Nc1ncc(C(F)(F)F)c(N2CCCC(C)(O)C2)n1 (centres unmarked) [I-716] | – |
| A (A (>75% o)) | < 100 nM | – | Cc1cc(S(=O)(=O)NC2CC3(C2)CN(CC2CN(c4ccc(C5CCC(=O)NC5=O)c(Cl)c4)C2)C3)ccc1Nc1ncc(C(F)(F)F)c(N2CCCC(C)(O)C2)n1 (centres unmarked) [I-928] | – |
| A (A (>75% o)) | < 100 nM | – | Cc1cc(S(=O)(=O)NC2CCC(CN3CCN(c4ccc(C5CCC(=O)NC5=O)cc4F)CC3C)CC2)ccc1Nc1ncc2c(n1)N(C1CCCC(O)C1)C(=O)C21CC1 (centres unmarked) [I-966] | – |
| A (A (>75% o)) | < 100 nM | – | Cc1cc(S(=O)(=O)N2CCC(CN(C)C3CCN(c4cccc5c4n(C)c(=O)n5C4CCC(=O)NC4=O)CC3)CC2)ccc1Nc1nccc(-c2cnc(C)n2C(C)C)n1 (centres unmarked) [I-1152] | – |
| D (D (<25%)) | > 1000 nM | – | Cc1cc(S(=O)(=O)C2CC3(CCN(CC4CCN(c5ccc6c(c5F)n(C)c(=O)n6C5CCC(=O)NC5=O)CC4)CC3)C2)ccc1Nc1ncc2cc(Cl)c(=O)n(C(C)C(C)(C)O)c2n1 (centres unmarked) [I-837] | – |
| A (A (>75% o)) | < 100 nM | – | Cc1cc(S(=O)(=O)NCCOC2CCC(CN3CCC(c4ccc5c(c4)n(C)c(=O)n5C4CCC(=O)NC4=O)CC3)CC2)ccc1Nc1ncc2c(n1)N(C1CCCC1)C(=O)C21CC1 (centres unmarked) [I-537] | – |
| D (D (<25%)) | > 1000 nM | – | Cc1cc(S(=O)(=O)C2CC3(CCN(CC4CCN(c5ccc6c(c5F)n(C)c(=O)n6C5CCC(=O)NC5=O)CC4)CC3)C2)ccc1Nc1cc2cnc(Cl)cc2n(C2CCCC2)c1=O (centres unmarked) [I-825] | – |
| A (A (>75% o)) | < 100 nM | – | CC1CC(NS(=O)(=O)c2ccc(Nc3ncc(C(F)(F)F)c(N4CCCC(C)(O)C4)n3)c(F)c2)CCN1CC1CCN(c2ccc(C3CCC(=O)NC3=O)c(F)c2)CC1 (centres unmarked) [I-1060] | – |
| A (A (>75% o)) | < 100 nM | – | Cc1cc(S(=O)(=O)NC23CCC(CN4CCN(c5ccc(C6CCC(=O)NC6=O)cc5)CC4)(CC2)CC3)ccc1Nc1ncc(C(F)(F)F)c(N2CCC[C@](C)(O)C2)n1 (some centres unmarked) [I-802] | – |
| A (A (>75% o)) | < 100 nM | – | Cc1cc(S(=O)(=O)NC(C)COC2CCC(CN3CCN(c4ccc5c(c4F)n(C)c(=O)n5C4CCC(=O)NC4=O)CC3)CC2)ccc1Nc1ncc(C(F)(F)F)c(N2CCCC(C)(O)C2)n1 (centres unmarked) [I-844] | – |
| B (B (>50% -75%)) | < 100 nM | – | Cc1cc(S(=O)(=O)C2CC3(CCN(CCN4CCN(c5ccc6c(c5F)n(C)c(=O)n6C5CCC(=O)NC5=O)CC4)CC3)C2)ccc1Nc1ncc2cc(Cl)c(=O)n(C3CCCC3)c2n1 (centres unmarked) [I-826] | – |
| A (A (>75% o)) | 100 to 500 nM | – | CC1(O)CCC(c2nc(Nc3ccc(S(=O)(=O)NC4CCC(CN5CCN(c6ccc(C7CCC(=O)NC7=O)c(F)c6)CC5)CC4)cc3F)ncc2C(F)(F)F)CC1 (centres unmarked) [I-1074] | – |
| B (B (>50% -75%)) | 100 to 500 nM | – | Cc1cc(S(=O)(=O)N2CC3(CCN(CC4CCN(c5ccc6c(c5F)n(C)c(=O)n6C5CCC(=O)NC5=O)CC4)CC3(F)F)C2)ccc1Nc1ncc2ccc(=O)n(C3CCCC3)c2n1 (centres unmarked) [I-836] | – |
